Data on 1 compound can be found in paper PMC6407917, “Identification of GSK3186899/DDD853651 as a Preclinical Development Candidate for the Treatment of Visceral Leishmaniasis” (Journal of Medicinal Chemistry, 2018).

The structures appear in SMILES notation. Where only a bound is given, the exact number is not on record here.

What is called IC50 is the concentration that gives 50% inhibition. Low values mean greater potency in that assay, high ones weaker potency in that assay.

Targets include ITK (Homo sapiens, UniProt Q08881); RPS6KA6 (Homo sapiens, UniProt Q9UK32); STK3 (Homo sapiens, UniProt Q13188); DDR2 (Homo sapiens, UniProt Q16832); FN3K (Homo sapiens, UniProt Q9H479); LIMK1 (Homo sapiens, UniProt P53667); MAPK7 (Homo sapiens, UniProt Q13164); MAP4K5 (Homo sapiens, UniProt Q9Y4K4); PRKAG1 (Homo sapiens, UniProt P54619); TBK1 (Homo sapiens, UniProt Q9UHD2); DYRK1A (Homo sapiens, UniProt Q13627); RIOK2 (Homo sapiens, UniProt Q9BVS4); PRKAA1 (Homo sapiens, UniProt Q13131); AURKC (Homo sapiens, UniProt Q9UQB9); PDIK1L (Homo sapiens, UniProt Q8N165); NEK9 (Homo sapiens, UniProt Q8TD19); PHKA2 (Homo sapiens, UniProt P46019); MAP2K4 (Homo sapiens, UniProt P45985); CSNK1E (Homo sapiens, UniProt P49674); PAK6 (Homo sapiens, UniProt Q9NQU5); HIPK2 (Homo sapiens, UniProt Q9H2X6).

Common to all, as to assay: biochemical
What all share (design): species or system HEK293/K-562/placenta mixed human extract; Kinobeads chemoproteomic competition binding, quantified by TMT LC-MS/MS, dose response up to 20 uM

Sequence of LIMK1 (P53667 whole entry): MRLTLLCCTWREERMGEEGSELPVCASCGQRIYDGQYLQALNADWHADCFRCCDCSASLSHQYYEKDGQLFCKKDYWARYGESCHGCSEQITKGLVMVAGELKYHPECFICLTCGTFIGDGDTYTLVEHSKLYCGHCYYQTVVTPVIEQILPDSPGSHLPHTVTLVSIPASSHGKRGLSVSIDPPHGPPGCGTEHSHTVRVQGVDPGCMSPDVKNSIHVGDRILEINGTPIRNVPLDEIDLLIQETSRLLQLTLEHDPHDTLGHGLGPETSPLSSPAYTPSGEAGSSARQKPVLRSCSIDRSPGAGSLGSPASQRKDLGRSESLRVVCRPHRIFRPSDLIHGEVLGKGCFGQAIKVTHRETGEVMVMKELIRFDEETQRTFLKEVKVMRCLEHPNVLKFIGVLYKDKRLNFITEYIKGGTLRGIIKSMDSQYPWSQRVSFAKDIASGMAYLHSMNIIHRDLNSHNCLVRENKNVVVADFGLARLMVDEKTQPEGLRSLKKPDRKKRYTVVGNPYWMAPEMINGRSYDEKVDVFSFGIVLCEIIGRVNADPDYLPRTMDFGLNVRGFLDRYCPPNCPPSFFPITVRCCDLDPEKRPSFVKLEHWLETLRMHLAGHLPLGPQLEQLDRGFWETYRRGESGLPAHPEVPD
Sequence of PDIK1L (Q8N165 whole entry): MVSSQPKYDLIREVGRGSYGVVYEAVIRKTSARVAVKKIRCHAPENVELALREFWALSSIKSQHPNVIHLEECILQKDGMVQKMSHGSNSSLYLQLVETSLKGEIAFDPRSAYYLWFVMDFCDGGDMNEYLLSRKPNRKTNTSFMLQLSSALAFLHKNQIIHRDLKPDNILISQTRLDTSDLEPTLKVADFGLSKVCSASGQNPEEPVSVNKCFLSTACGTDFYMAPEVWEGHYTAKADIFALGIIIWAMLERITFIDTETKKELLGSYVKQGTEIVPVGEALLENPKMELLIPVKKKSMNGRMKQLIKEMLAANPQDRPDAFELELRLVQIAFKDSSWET
Sequence of CSNK1E (P49674 whole entry): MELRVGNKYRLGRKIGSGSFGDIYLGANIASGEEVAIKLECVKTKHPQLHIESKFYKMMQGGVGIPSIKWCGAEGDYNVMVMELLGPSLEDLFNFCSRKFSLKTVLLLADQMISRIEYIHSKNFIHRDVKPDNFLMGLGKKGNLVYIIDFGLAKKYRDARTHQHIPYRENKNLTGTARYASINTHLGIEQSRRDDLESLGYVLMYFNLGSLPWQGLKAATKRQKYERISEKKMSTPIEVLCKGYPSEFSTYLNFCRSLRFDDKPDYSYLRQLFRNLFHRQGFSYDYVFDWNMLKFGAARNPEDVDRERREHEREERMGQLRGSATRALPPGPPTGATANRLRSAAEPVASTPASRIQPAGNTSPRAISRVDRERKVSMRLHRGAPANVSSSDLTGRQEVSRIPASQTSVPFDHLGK
Sequence of PAK6 (Q9NQU5 whole entry): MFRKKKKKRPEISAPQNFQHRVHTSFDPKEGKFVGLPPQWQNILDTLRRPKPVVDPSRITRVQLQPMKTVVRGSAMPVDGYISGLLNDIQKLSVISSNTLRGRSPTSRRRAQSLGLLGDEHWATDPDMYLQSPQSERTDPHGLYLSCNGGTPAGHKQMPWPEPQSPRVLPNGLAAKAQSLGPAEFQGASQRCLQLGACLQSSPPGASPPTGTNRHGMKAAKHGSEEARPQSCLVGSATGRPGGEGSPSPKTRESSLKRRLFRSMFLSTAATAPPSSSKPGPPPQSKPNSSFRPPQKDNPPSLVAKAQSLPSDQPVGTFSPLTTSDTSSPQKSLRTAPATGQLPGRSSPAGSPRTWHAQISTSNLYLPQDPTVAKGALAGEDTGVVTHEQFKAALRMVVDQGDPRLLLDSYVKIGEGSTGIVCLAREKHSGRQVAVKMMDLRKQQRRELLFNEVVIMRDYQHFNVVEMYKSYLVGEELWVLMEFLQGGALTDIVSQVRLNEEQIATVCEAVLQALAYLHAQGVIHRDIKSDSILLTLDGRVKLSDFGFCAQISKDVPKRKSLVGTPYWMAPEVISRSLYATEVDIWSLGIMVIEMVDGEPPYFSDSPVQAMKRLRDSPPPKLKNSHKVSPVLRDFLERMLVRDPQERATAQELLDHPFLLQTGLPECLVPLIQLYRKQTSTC
Sequence of PRKAG1 (P54619 whole entry): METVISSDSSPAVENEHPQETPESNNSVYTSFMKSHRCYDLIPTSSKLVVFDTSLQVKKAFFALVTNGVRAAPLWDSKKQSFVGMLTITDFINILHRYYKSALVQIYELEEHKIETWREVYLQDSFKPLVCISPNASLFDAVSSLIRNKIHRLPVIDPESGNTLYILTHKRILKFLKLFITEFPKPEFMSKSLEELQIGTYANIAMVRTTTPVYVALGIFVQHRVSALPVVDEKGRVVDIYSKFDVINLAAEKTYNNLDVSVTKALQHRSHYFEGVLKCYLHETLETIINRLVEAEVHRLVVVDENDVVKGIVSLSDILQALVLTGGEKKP
Sequence of NEK9 (Q8TD19 whole entry): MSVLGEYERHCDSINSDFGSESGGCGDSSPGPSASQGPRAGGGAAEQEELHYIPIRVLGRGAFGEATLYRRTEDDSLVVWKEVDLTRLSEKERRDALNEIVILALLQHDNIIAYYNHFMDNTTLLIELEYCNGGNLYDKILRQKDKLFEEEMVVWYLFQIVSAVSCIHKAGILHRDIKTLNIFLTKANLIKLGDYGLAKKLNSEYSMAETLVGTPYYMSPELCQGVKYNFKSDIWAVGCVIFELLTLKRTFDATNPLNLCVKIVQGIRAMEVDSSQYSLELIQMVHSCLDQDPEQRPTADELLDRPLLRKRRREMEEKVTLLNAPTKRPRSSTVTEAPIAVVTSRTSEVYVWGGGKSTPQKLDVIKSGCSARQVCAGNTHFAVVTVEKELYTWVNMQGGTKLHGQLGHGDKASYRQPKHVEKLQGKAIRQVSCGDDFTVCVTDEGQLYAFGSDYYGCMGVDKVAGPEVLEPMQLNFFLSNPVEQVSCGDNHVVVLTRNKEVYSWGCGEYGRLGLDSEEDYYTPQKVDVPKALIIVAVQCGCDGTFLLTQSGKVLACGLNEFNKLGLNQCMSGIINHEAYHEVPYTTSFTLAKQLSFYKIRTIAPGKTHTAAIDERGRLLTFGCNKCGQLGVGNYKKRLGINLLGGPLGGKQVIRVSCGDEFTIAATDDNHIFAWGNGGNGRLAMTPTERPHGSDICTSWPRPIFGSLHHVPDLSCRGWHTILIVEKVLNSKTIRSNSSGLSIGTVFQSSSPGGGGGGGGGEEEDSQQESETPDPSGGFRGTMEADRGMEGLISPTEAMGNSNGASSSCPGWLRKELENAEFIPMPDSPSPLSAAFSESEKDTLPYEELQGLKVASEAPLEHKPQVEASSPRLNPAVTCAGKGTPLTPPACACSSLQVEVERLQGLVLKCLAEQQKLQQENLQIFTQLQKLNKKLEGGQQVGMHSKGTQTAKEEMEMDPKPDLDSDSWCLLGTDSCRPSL
Sequence of PHKA2 (P46019 whole entry): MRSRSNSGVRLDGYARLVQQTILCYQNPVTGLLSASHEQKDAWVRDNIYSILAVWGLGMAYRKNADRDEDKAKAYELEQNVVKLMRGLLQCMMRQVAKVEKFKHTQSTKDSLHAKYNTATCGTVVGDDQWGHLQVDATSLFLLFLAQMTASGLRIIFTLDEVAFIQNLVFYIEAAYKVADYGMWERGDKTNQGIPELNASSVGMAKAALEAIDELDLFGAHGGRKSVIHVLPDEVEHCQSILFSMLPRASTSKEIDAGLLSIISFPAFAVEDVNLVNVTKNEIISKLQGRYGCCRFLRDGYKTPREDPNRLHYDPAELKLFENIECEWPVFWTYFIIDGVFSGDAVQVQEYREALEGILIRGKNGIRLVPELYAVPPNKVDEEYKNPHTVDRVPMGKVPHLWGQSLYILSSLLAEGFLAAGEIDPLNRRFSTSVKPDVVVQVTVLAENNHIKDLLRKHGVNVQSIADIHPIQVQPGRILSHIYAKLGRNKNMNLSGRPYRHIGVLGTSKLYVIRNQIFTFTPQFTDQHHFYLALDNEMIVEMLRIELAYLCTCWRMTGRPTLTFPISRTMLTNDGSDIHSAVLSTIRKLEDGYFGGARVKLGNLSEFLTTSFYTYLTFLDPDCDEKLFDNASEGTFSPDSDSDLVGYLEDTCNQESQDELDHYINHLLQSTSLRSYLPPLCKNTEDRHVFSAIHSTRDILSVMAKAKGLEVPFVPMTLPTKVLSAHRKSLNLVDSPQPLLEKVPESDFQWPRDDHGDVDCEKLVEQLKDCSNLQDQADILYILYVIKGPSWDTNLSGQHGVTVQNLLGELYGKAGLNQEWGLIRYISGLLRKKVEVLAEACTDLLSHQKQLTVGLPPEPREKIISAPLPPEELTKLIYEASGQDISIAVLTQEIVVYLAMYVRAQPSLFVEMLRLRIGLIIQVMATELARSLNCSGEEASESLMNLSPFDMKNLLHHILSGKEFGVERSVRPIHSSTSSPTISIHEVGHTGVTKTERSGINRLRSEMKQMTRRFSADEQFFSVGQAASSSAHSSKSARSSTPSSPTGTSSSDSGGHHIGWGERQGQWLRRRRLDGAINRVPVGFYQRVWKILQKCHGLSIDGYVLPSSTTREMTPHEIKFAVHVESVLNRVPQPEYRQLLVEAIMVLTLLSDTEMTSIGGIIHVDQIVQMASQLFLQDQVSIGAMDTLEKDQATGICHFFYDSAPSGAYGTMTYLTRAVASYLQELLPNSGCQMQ
Sequence of AURKC (Q9UQB9 whole entry): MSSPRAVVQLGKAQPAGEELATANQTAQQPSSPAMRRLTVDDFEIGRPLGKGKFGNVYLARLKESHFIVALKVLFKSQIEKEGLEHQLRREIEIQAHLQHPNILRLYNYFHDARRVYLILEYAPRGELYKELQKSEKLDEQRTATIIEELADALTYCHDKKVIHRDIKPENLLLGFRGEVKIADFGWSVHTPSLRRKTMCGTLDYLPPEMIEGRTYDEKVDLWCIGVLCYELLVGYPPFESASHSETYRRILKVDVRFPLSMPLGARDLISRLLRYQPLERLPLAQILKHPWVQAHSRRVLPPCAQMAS

As to `COc1ccccc1-c1n[nH]c2nc(N[C@H]3CC[C@H](NS(=O)(=O)CCC(F)(F)F)CC3)nc(OC)c12` [compound 31, 3,3,3-Trifluoro-N-(trans-4-((4-methoxy-3-(2-methoxyphenyl)-1H-pyrazolo[3,4-d]pyrimidin-6-yl)amino)cyclohexyl)propane-1-sulfonamide], the IC50 on ITK, at RPS6KA6, on STK3, on DDR2, on FN3K and on LIMK1 was at least 20 µM each time. Further, the IC50 at MAPK7, at MAP4K5, at PRKAG1, on TBK1, on DYRK1A and at RIOK2 was at least 20 µM in each case. Besides, the IC50 at PRKAA1, on AURKC, on PDIK1L, at NEK9, at PHKA2 and on MAP2K4 was at least 20 µM throughout. In addition, the IC50 is 7.7 µM at CSNK1E, at least 20 µM on PAK6 and at least 20 µM at HIPK2.
